ChEMBL document CHEMBL5634079, “Development of novel celastrol-ligustrazine hybrids as potent peroxiredoxin 1 inhibitors against lung cancer” (Eur J Med Chem, 2023)
Calls of active or inactive are those of the source. No cut-off for these calls is given here.

How the values were obtained:
A549 [1] = assay: Induction of apoptosis in human A549 cells assessed as early apoptotic cells at 4 uM incubated for 48 hrs by Annexin V-FITC and PI staining based flow cytometric analysis (reference value: 0.76%); format: functional
[2] = Toxicity in C57BL/6J mouse implanted with mouse Lewis lung carcinoma cell line assessed as liver damage at 0.5 to 1 mg/kg, ip administered every day for 19 days; format: organism-based; settings: in vivo, 456 h, dose 0.5-1 mg/kg, time 19 day
[3] = biological target: RAF proto-oncogene serine/threonine-protein kinase (Homo sapiens) (UniProt P04049); assay: Inhibition of C-RAF phosphorylation in human A549 cells at 2 to 4 uM by Western blot analysis; format: cell-based; settings: dose 2-4 µM
Chain of RAF proto-oncogene serine/threonine-protein kinase (Homo sapiens) (P04049 whole entry): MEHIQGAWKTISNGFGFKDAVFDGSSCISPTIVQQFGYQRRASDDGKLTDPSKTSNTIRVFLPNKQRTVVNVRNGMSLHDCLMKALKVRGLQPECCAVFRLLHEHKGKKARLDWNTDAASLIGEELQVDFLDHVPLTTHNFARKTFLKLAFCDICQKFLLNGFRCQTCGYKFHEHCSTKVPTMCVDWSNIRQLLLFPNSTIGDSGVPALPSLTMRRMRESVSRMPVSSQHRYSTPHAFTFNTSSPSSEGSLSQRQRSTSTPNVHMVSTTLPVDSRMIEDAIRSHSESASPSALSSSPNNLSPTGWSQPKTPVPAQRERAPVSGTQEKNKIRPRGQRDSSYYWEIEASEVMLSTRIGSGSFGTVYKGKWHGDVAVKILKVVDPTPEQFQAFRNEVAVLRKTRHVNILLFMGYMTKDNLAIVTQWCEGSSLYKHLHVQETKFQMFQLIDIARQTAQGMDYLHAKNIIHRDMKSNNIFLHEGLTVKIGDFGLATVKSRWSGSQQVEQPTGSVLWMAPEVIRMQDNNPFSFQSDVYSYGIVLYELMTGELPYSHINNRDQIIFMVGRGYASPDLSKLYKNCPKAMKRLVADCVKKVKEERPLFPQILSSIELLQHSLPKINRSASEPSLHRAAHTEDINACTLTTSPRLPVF

Lewis lung carcinoma = assay: Antitumor activity against mouse Lewis lung carcinoma cell line implanted in C57BL/6J mouse assessed as reduction in tumor cell proliferation by measuring reduction in Ki67 expression at 0.5 to 1 mg/kg, ip administered every day for 19 days; format: functional, organism-based; settings: dose 0.5-1 mg/kg, time 19.0 day
[4] = Antitumor activity against mouse Lewis lung carcinoma cell line implanted in C57BL/6J mouse assessed as tumor growth inhibition at 1 mg/kg, ip administered every day for 19 days; format: functional; settings: 456 h, time 19 day, read-out: TGI
A549 [5] = assay: Downregulation of PRDX2 level in human A549 cells at 2 to 4 uM by Western blot analysis; format: functional, cell-based; settings: dose 2-4 µM
A549 [6] = assay: Induction of apoptosis in human A549 cells assessed as late apoptotic cells at 2 uM incubated for 48 hrs by Annexin V-FITC and PI staining based flow cytometric analysis (reference value: 0.73%); format: functional
A549 [7] = assay: Induction of intracellular ROS generation in human A549 cells at 2 to 4 uM incubated for 6 hrs by DCFH-DA staining based flow cytometry analysis; format: functional, cell-based; settings: dose 2-4 µM
A549 [8] = assay: Inhibition of cell migration in human A549 cells at 2 to 4 uM incubated for 24 hrs by inverted microscopic analysis; format: functional, cell-based; settings: dose 2-4 µM
A549 [9] = assay: Induction of apoptosis in human A549 cells assessed as necrotic cells at 2 uM incubated for 48 hrs by Annexin V-FITC and PI staining based flow cytometric analysis (reference value: 4.68%); format: functional
A549 [10] = assay: Inhibition of PI3K phosphorylation in human A549 cells at 2 to 4 uM by Western blot analysis; format: cell-based; settings: dose 2-4 µM
NCI-H1975 = assay: Antiproliferative activity against human NCI-H1975 cells assessed as inhibition of cell growth incubated for 48 hrs by MTT assay; format: functional, cell-based; settings: NCI-H1975, 48 h

For CC1=C(OC(=O)/C=C/c2ccccc2)C(=O)C=C2C1=CC=C1[C@@]2(C)CC[C@@]2(C)[C@@H]3C[C@](C)(C(=O)NCc4nc(C)c(C)nc4C)CC[C@]3(C)CC[C@]12C, the Activity (A549 [1]) was 18.5%, the Activity [2] was “Non-Toxic” and the inhibition [3] was “Active”. The Activity (Lewis lung carcinoma) was “Active”, the inhibition in vivo at 1 mg/kg [4] was 77.4% and the Activity (A549 [5]) was “Active”. The Activity (A549 [6]) was 4.91%, the Activity (A549 [7]) was “Active” and the inhibition (A549 [8]) was “Active”. For the same compound, the Activity (A549 [9]) was 3.57%, the inhibition (A549 [10]) was “Active” and the IC50 (NCI-H1975) was 1990 nM.
